Measured values published in patent US20230024108A1, “ADENOSINE A2A RECEPTOR ANTAGONISTS” (Teon Therapeutics, Inc., priority 2019, published 2023).
Where a name gives a salt, the structure may show the parent alone.

How the values were obtained:
human A2A AdoR = target: T1, human A2A AdoR (Homo sapiens, UniProt P29274); test: Adenosine receptor binding assay, A2A ([3H]-CGS-21680); settings: membranes of HEK-293 cells expressing human A2A AdoR; read-out: hA2A IC50
T1 construct: purchased PerkinElmer RBHA2AM400UA
Experimental: (§1) Membranes prepared from CHO-K1 cells stably expressing Human AiAdoR (ES-010-M400UA), HEK-293 cells stably expressing human A2A AdoR (RBHA2AM400UA), HEK-293 cells stably expressing human A2B AdoR (ES-013-M400UA) and CHO-K1 cells stably expressing Human A3 AdoR (ES-012-M400UA) were purchased from PerkinElmer (Waltham, Mass., USA) and stored at −80° C. until use. Binding assays are performed using the radioligands. The final concentrations are as follows: [3H]-DPCPX (PerkinElmer, NET974001MC) at 1 nM for A1AdoR; [^3H]-CGS-21680 (PerkinElmer, NET1021250UC) at 6 nM for A2AAdoR, [3H]-DPCPX (PerkinElmer, NET974001MC) at 8 nM for A2BAdoR; [^3H]-HEMADO (ARC, Cat: ART1456) at 1 nM for A3AdoR. Testing compounds are diluted with DMSO to make 8-point 4-fold serial dilution. Nonspecific binding (Low control: LC) and total binding (High control: HC) are determined in the presence or absence of saturated cold ligand. Specific binding is calculated by subtracting nonspecific binding from total binding. All assays are performed in a final volume of 200 μl containing 1 μl of the test compound in DMSO, 100 μl of membrane preparation, and 99 μl of the radioligand in assay buffer (A1AdoR: 25 mM HEPES pH 7.4, 5 mM MgCl2, 1 mM CaCl2), 100 mM NaCl; A2AAdoR: 50 mM Tris HCl pH 7.4, 10 mM MgCl2, 1 mM EDTA; A2BAdoR: 50 mM HEPES pH 7.0, 5 mM MgCl2, 1 mM EDTA; A3AdoR: 25 HEPES pH 7.4, 10 mM MgCl2, 1 mM CaCl2), 0.5% BSA). The incubation is performed at room temperature with shaking at 300 rpm for 1 hour for A1AdoR, A2BAdoR and A3AdoR and 2 hours for A2AAdoR. After the incubation, the assay mixture is filtered through 96 GF/C filter plates (Perkin Elmer #6005174) using Perkin Elmer Filtermate Harvester, and then washed four times with ice-cold washing buffer (A1AdoR: 25 mM HEPES pH 7.4, 5 mM MgCl2, 1 mM CaCl2), 100 mM NaCl; A2AAdoR: 50 mM Tris HCl pH 7.4, 154 mM NaCl; A2BAdoR: 50 mM HEPES pH 6.5, 5 mM MgCl2, 1 mM EDTA, 0.2% BSA; A3AdoR: 50 mM Tris HCl pH 7.4). The filters are dried for 1 hour at 50° C. and [^3H] trapped on filter counted for radioactivity in Perkin Elmer Microscint 20 cocktail (#6013329) using Perkin Elmer MicroBeta2 Reader. The results are expressed as a percent inhibition of the control radioligand specific binding calculated using the following equation: % Inhibition=(1−(Assay well-Average_LC)/(Average_HC−Average_LC))×100%. Data are analyzed and IC50 is calculated using GraphPad Prism 5 and the model “log(inhibitor) vs. response—Variable slope”. The binding affinity of the compounds is determined by using the Cheng and Prusoff equation Ki=IC50/(1+[radioligand]/Kd).

A1AdoR = target: T2, A1AdoR (Homo sapiens, UniProt P30542); test: Adenosine receptor binding assay, A1 ([3H]-DPCPX); settings: ratio A1 vs A2A binding
T2 construct: purchased PerkinElmer ES-010-M400UA
T2 sequence (P30542 1-326): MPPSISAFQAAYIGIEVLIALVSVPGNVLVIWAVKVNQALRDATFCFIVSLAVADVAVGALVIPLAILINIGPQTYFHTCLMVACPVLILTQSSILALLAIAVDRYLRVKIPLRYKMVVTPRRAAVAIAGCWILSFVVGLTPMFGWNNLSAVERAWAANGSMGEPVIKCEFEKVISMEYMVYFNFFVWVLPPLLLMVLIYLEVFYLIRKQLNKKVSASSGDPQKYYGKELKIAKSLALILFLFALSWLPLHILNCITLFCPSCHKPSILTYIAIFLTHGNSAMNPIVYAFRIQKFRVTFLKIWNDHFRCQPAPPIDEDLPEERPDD
Experimental: as §1

T1 sequence (P29274 whole entry): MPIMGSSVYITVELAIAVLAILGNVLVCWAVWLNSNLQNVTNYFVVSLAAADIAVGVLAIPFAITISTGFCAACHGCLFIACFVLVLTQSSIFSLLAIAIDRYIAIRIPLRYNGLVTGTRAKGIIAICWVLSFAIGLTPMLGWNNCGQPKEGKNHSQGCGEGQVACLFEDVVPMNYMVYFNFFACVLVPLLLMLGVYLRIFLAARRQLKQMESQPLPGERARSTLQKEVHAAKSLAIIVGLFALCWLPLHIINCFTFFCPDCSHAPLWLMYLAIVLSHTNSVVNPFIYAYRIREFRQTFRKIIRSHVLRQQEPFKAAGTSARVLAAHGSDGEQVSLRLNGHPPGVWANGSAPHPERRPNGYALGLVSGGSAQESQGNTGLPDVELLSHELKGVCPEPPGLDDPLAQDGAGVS

Structure (SMILES) | IC50 (human A2A AdoR) | A1/A2A Selectivity (A1AdoR)
Cc1cc(N2CCN(CCn3c(C(=O)O)c(Cl)c4c3nc(N)n3nc(-c5ccccn5)nc43)CC2)c(F)cn1 [5-amino-9-chloro-7-(2-(4-(5-fluoro-2-methylpyridin-4-yl)piperazin-1-yl)ethyl)-2-(pyridin-2-yl)-7H-pyrrolo[3,2-e][1,2,4]triazolo[1,5-c]pyrimidine-8-carboxylic acid] | ≤ 20 nM | a (greater than 1000)
COC(=O)c1c(Cl)c2c(nc(N)n3nc(-c4ccccn4)nc23)n1CCN1CCN(c2cc(-c3ncco3)ccc2F)CC1 [methyl 5-amino-9-chloro-7-(2-(4-(2-fluoro-5-(oxazol-2-yl)phenyl)piperazin-1-yl)ethyl)-2-(pyridin-2-yl)-7H-pyrrolo[3,2-e][1,2,4]triazolo[1,5-c]pyrimidine-8-carboxylate] | ≤ 20 nM | a (greater than 1000)
Nc1nc2c(ncn2CCN2CCN(c3cc(-n4cccn4)ccc3F)CC2)c2nc(-c3ccccn3)nn12 [3-(2-(4-(2-fluoro-5-(1H-pyrazol-1-yl)phenyl)piperazin-1-yl)ethyl)-8-(pyridin-2-yl)-3H-[1,2,4]triazolo[5,1-i]purin-5-amine] | ≤ 20 nM | b (greater than 100 but less than or equal to 1000)
Cc1cn(CCN2CCCN(c3cc(-c4ncco4)ccc3F)CC2)c2nc(N)n3nc(-c4ccccn4)nc3c12 [7-(2-(4-(2-fluoro-5-(oxazol-2-yl)phenyl)-1,4-diazepan-1-yl)ethyl)-9-methyl-2-(pyridin-2-yl)-7H-pyrrolo[3,2-e][1,2,4]triazolo[1,5-c]pyrimidin-5-amine] | ≤ 20 nM | c (greater than 0 but less than or equal to 100)
NC(=O)c1c(Cl)c2c(nc(N)n3nc(-c4ccccn4)nc23)n1CCN1CCN(c2ccc(F)cc2F)CC1 | ≤ 20 nM | c (greater than 0 but less than or equal to 100)
N#Cc1ccc(N2CCN(CCn3c(C(=O)O)c(Cl)c4c3nc(N)n3nc(-c5ccccn5)nc43)CC2)c(F)c1 [5-amino-9-chloro-7-(2-(4-(4-cyano-2-fluorophenyl)piperazin-1-yl)ethyl)-2-(pyridin-2-yl)-7H-pyrrolo[3,2-e][1,2,4]triazolo[1,5-c]pyrimidine-8-carboxylic acid] | ≤ 20 nM | b (greater than 100 but less than or equal to 1000)
Cc1noc2cc(F)c(N3CCN(CCn4c(OC=O)c(Cl)c5c4nc(N)n4nc(-c6ccccn6)nc54)CC3)cc12 [5-amino-9-chloro-7-(2-(4-(6-fluoro-3-methylbenzo[d]isoxazol-5-yl)piperazin-1-yl)ethyl)-2-(pyridin-2-yl)-7H-pyrrolo[3,2-e][1,2,4]triazolo[1,5-c]pyrimidin-8-yl formate] | ≤ 20 nM | a (greater than 1000)
Cc1c(C(=O)O)n(CCN2CCN(c3ncccn3)CC2)c2nc(N)n3nc(-c4ccccn4)nc3c12 [5-amino-9-methyl-2-(pyridin-2-yl)-7-(2-(4-(pyrimidin-2-yl)piperazin-1-yl)ethyl)-7H-pyrrolo[3,2-e][1,2,4]triazolo[1,5-c]pyrimidine-8-carboxylic acid] | ≤ 20 nM | b (greater than 100 but less than or equal to 1000)
COC(=O)c1cc2c(nc(N)n3nc(-c4ccccn4)nc23)n1CCN1CCN(c2cc(-c3ncco3)ccc2F)CC1 [methyl 5-amino-7-(2-(4-(2-fluoro-5-(oxazol-2-yl)phenyl)piperazin-1-yl)ethyl)-2-(pyridin-2-yl)-7H-pyrrolo[3,2-e][1,2,4]triazolo[1,5-c]pyrimidine-8-carboxylate] | ≤ 20 nM | a (greater than 1000)
COC(=O)c1c(C)c2c(nc(N)n3nc(-c4ccccn4)nc23)n1CCN1CCN(c2cc(C)ncc2F)CC1 [methyl 5-amino-7-(2-(4-(5-fluoro-2-methylpyridin-4-yl)piperazin-1-yl)ethyl)-9-methyl-2-(pyridin-2-yl)-7H-pyrrolo[3,2-e][1,2,4]triazolo[1,5-c]pyrimidine-8-carboxylate] | ≤ 20 nM | a (greater than 1000)
Cc1c(C(=O)O)n(CCN2CCN(c3ccncc3)CC2)c2nc(N)n3nc(-c4ccccn4)nc3c12 | 20 to 100 nM | c (greater than 0 but less than or equal to 100)
Nc1nc2c(c(Cl)c(C(=O)NC3CC3)n2CCN2CCN(c3cc(-c4ncco4)ccc3F)CC2)c2nc(-c3ccccn3)nn12 | ≤ 20 nM | a (greater than 1000)
Cc1noc2cc(F)c(N3CCN(CCn4c(C(=O)O)c(C)c5c4nc(N)n4nc(-c6ccccn6)nc54)CC3)cc12 | ≤ 20 nM | b (greater than 100 but less than or equal to 1000)
Cc1noc2cc(F)c(N3CCCN(CCn4c(C(=O)O)c(Cl)c5c4nc(N)n4nc(-c6ccccn6)nc54)CC3)cc12 [5-amino-9-chloro-7-(2-(4-(6-fluoro-3-methylbenzo[d]isoxazol-5-yl)-1,4-diazepan-1-yl)ethyl)-2-(pyridin-2-yl)-7H-pyrrolo[3,2-e][1,2,4]triazolo[1,5-c]pyrimidine-8-carboxylic acid] | > 100 nM | c (greater than 0 but less than or equal to 100)
CC#Cc1nc2c3ncn(CCN4CCN(c5ccc(OC(C)(C)C(=O)O)cc5)CC4)c3nc(N)n2n1 [2-(4-(4-(2-(5-amino-8-(prop-1-yn-1-yl)-3H-[1,2,4]triazolo[5,1-i]purin-3-yl)ethyl)piperazin-1-yl)phenoxy)-2-methylpropanoic acid] | 20 to 100 nM | b (greater than 100 but less than or equal to 1000)
CC#Cc1nc2c3ncn(CCN4CCN(c5cc(-n6cccn6)ccc5F)CC4)c3nc(N)n2n1 | ≤ 20 nM | a (greater than 1000)
Cc1c(C(=O)O)n(CCN2CCN(c3ccc(C#N)cc3F)CC2)c2nc(N)n3nc(-c4ccccn4)nc3c12 [5-amino-7-(2-(4-(4-cyano-2-fluorophenyl)piperazin-1-yl)ethyl)-9-methyl-2-(pyridin-2-yl)-7H-pyrrolo[3,2-e][1,2,4]triazolo[1,5-c]pyrimidine-8-carboxylic acid] | ≤ 20 nM | b (greater than 100 but less than or equal to 1000)
CNC(=O)c1c(C)c2c(nc(N)n3nc(-c4ccccn4)nc23)n1CCN1CCCN(c2cc(-c3ncco3)ccc2F)CC1 [5-amino-7-(2-(4-(2-fluoro-5-(oxazol-2-yl)phenyl)-1,4-diazepan-1-yl)ethyl)-N,9-dimethyl-2-(pyridin-2-yl)-7H-pyrrolo[3,2-e][1,2,4]triazolo[1,5-c]pyrimidine-8-carboxamide] | ≤ 20 nM | b (greater than 100 but less than or equal to 1000)
Cc1cc(N2CCN(CCn3c(C(N)=O)c(Cl)c4c3nc(N)n3nc(-c5ccccn5)nc43)CC2)c(F)cn1 [5-amino-9-chloro-7-(2-(4-(5-fluoro-2-methylpyridin-4-yl)piperazin-1-yl)ethyl)-2-(pyridin-2-yl)-7H-pyrrolo[3,2-e][1,2,4]triazolo[1,5-c]pyrimidine-8-carboxamide] | ≤ 20 nM | c (greater than 0 but less than or equal to 100)
